Assays:
[1] = test system: murine Hrnr; assay: In vitro siRNA-mediated hornerin knockdown in COCA cells (immunoblot); format: cell-based; settings: COCA mouse keratinocytes, densitometry
Procedure: (§1) For in vitro siRNA-mediated hornerin knockdown, COCA cells and human keratinocytes were plated at a density of 0.1×10^6 cells/well in a six-well cluster plate. The cells were treated the following day with Scr siRNA or Hrnr siRNA (Invitrogen; siRNA sequences identical to those utilized in tumor studies) following an established protocol (see Rachow et al., 2013). Briefly, 100 μL of 10 μM siRNA and 12.5 μL of Lipofectamine 2000 (LF2000; Invitrogen) were added to separate 625 μL OptiMEM (Thermo Fisher Scientific) aliquots. After 5 minutes at RT, the solutions were mixed and incubated for an additional 30 minutes, upon which 5 ml of keratinocyte media were added. The cells were incubated overnight in 3 ml of the siRNA/LF2000/media mixture, replenished the following morning with media containing 2 mM CaCl2) to induce differentiation, and lysed in RIPA buffer 8 hours post-media change. Lysate preparations were subjected to immunoblot using the primary antibodies anti-human hornerin (Abcam; 1:1000), anti-mouse hornerin (Santa Cruz Biotechnology, Dallas, TX, USA, sc164605; 1:200), or anti-beta actin (Cell Signaling; 1:4000), and respective secondary antibodies anti-goat HRP (R&D Systems; 1:10,000), and anti-mouse HRP (R&D Systems; 1:10,000). Uncropped hornerin immunoblots are represented in FIGS. 6A and 6B.

[2] = test system: human hornerin; assay: In vitro siRNA treatment of human keratinocytes (immunoblot); format: cell-based
Procedure: as §1

[3] = test system: hornerin transcript; assay: qPCR of hornerin transcript in FACS-sorted CD31+CD45- tumor endothelial cells; format: in vivo, mouse; settings: vs Scr siRNA, 20 hours after injection
Procedure: Day 10 tumors were injected with either Scr siRNA or Hrnr siRNA and excised 20 hours later. The tumors were immediately washed in PBS (+Mg/+Ca), minced with scalpels, treated with Collagenase Type II (Worthington Biochemical Corporation, Lakewood, NJ, USA; (2.0 mg/mL) serum-free DMEM, 100 minutes at 37° C.), and filtered through a 40 μm cell strainer. The cell suspension (filtrate) was incubated with the following antibody/dye panel for FACS; anti-CD45 AF488 (1:100; Biolegend, San Diego, CA, USA, 103121, clone 30-F11), anti-CD31 AF647 (1:100; Biolegend, 102415, clone 390), LIVE/DEAD violet stain (1:200; Thermo Fisher). Flow cytometry analysis was completed on the Cyan ADP LX (Beckman Coulter). Compensation and data analysis was completed using FlowJo software (Ashland, OR, USA). […]
RNA was isolated from FACS-sorted CD31^+CD45^− cells according to the manufacturer's protocol (Qiagen mini-prep kit), and concentration and purity were determined using a NanoDrop Spectrophotometer (Thermo Fisher). Complimentary DNA (cDNA) was generated (Qiagen QuantiTect Reverse Transcription Kit) and subjected to pre-amplification (SsoAdvanced PreAmp Supermix, Bio-Rad). […] Melt curve analysis was performed on the hornerin and cyclophilin primer sets prior to data collection and normalized gene expression was determined by the delta delta Ct method.

[4] = test system: hornerin; assay: Immunofluorescent microscopy of hornerin protein in tumor sections; format: in vivo, mouse; settings: vs Scr siRNA
Procedure: Tumor sections were deparaffinized, rehydrated, heated in antigen retrieval solution (Vector), blocked for 30 minutes in blocking buffer, and incubated with anti-CD34 antibody (Abcam, ab8158, clone MEC14.7; 1:100) in blocking buffer overnight at 4° C. The sections were then incubated with goat anti-rat FITC secondary antibody (Abcam, ab6840; 1:100) in blocking buffer prior to mounting with Prolong Gold Antifade reagent (Invitrogen). Anti-actin, α-smooth muscle Cy3 antibody (Sigma, C6198, clone 1A4; 1:200) was added to the primary antibody solution if assaying for alpha-smooth muscle actin. […] Images were collected using a Nikon TE 2000-E2 microscope (Nikon Instruments) equipped with a Melles Griot Argon Laser System (Melles Griot, Carlsbad, CA, USA) and a Nikon D-Eclipse C1 confocal attachment and analyzed by Measurement Tool in Image J. To measure the relative hornerin expression in tumor vessels, three vessel segments per image were isolated and their mean intensity and area were measured and recorded. A weighted mean intensity was calculated to correct for differences in selected area. To measure the relative hornerin expression in tumor tissue, the mean intensity from three square sections (75×75 pixel) of tumor tissue per image was measured and recorded.

[5] = test system: tumor vessels; assay: Tumor vessel parameters in L3.6pl tumor sections (CD34, ACTA2, RAVE analysis); format: in vivo, mouse
Procedure: Following completion of the treatment schedule, the mice were killed, cardiac perfused, and the tumors were excised and fixed in formalin overnight. The tumors were paraffin embedded and cut into 5 (thin) or 50 μm (thick) sections. Tumor vessel parameters were evaluated in the following number of tumors for each treatment cohort: (Scr siRNA/ctrl., N=10; Hrnr siRNA/ctrl., N=10; Scr siRNA/AV-951, N=4; Hrnr siRNA/AV-951, N=4).
Tumor sections were deparaffinized, rehydrated, heated in antigen retrieval solution (Vector), blocked for 30 minutes in blocking buffer, and incubated with anti-CD34 antibody (Abcam, ab8158, clone MEC14.7; 1:100) in blocking buffer overnight at 4° C. The sections were then incubated with goat anti-rat FITC secondary antibody (Abcam, ab6840; 1:100) in blocking buffer prior to mounting with Prolong Gold Antifade reagent (Invitrogen). Anti-actin, α-smooth muscle Cy3 antibody (Sigma, C6198, clone 1A4; 1:200) was added to the primary antibody solution if assaying for alpha-smooth muscle actin. To compare hornerin expression in vessels and tumor tissue treated with Hrnr siRNA and Scr siRNA, thin paraffin sections were deparaffinized and stained with anti-CD34 and anti-hornerin antibodies described. Images were collected using a Nikon TE 2000-E2 microscope (Nikon Instruments) equipped with a Melles Griot Argon Laser System (Melles Griot, Carlsbad, CA, USA) and a Nikon D-Eclipse C1 confocal attachment and analyzed by Measurement Tool in Image J. To measure the relative hornerin expression in tumor vessels, three vessel segments per image were isolated and their mean intensity and area were measured and recorded. A weighted mean intensity was calculated to correct for differences in selected area. To measure the relative hornerin expression in tumor tissue, the mean intensity from three square sections (75×75 pixel) of tumor tissue per image was measured and recorded.
(§2) Vessel parameters were measured using RAVE software (Seaman et al., 2011). For detection of proliferation and apoptosis, the sections were incubated with the primary antibodies anti-Ki67 (Abcam, ab15580; 1:200) or anti-cleaved caspase 3 (Cell Signaling, 9661; 1:200), respectively, overnight at 4° C. followed by incubation with anti-rabbit AF594 (Abcam, 150080; 1:200).

[6] = test system: L3.6pl tumors; assay: Ki67 and cleaved caspase 3 immunofluorescence in tumor sections; format: in vivo, mouse; settings: day 15 tumor sections
Procedure: as §2

[7] = test system: L3.6pl xenografts; assay: Flow cytometry/FACS of tumor cell populations; format: in vivo, mouse
Procedure: Day 10 tumors were injected with either Scr siRNA or Hrnr siRNA and excised 20 hours later. The tumors were immediately washed in PBS (+Mg/+Ca), minced with scalpels, treated with Collagenase Type II (Worthington Biochemical Corporation, Lakewood, NJ, USA; (2.0 mg/mL) serum-free DMEM, 100 minutes at 37° C.), and filtered through a 40 μm cell strainer. The cell suspension (filtrate) was incubated with the following antibody/dye panel for FACS; anti-CD45 AF488 (1:100; Biolegend, San Diego, CA, USA, 103121, clone 30-F11), anti-CD31 AF647 (1:100; Biolegend, 102415, clone 390), LIVE/DEAD violet stain (1:200; Thermo Fisher). Flow cytometry analysis was completed on the Cyan ADP LX (Beckman Coulter). Compensation and data analysis was completed using FlowJo software (Ashland, OR, USA). FACS was completed in the UVA flow cytometry core on the Influx cell sorter (BD Biosciences, Franklin Lakes, NJ, USA).

[8] = L3.6pl tumors, RAVE, vs Scr siRNA
[9] = four-group combination experiment, vs control

cleaved caspase 3 levels in tumors relative to control [6]: two-fold increase
Substance: 5′-GCAUGGAUCUUGUUGCGGUTT-3′ [Hrnr siRNA]
reduction in hornerin expression (knockdown) relative to Scr siRNA [1]: 60%
loss of hornerin relative to Scr siRNA ([2]; similar conditions): ~10%
hornerin expression level relative to Scr siRNA ([2]; similar siRNA conditions): ~90%
reduction in hornerin transcript [3]: 78%
decrease in hornerin expression in endothelial cells ([4]; CD34+ tumor vessels): 30%
hornerin expression in epithelial cells from tumors [4]: no difference
increase in ACTA2 coverage of vessels ([5]; ACTA2-positive pixels / CD34-positive pixels, vs Scr siRNA): 2.3 fold
number of vessels per field ([5]; CD34-positive vessels per 0.4 mm^2 field, vs Scr siRNA): not different
fractal dimension (tortuosity) [5, 8]: reduced
vessel radius [5, 8]: overall reduction in vessel radius
vessel volume fraction (VVF) [5, 8]: reduced
number of vessels per field [5, 9]: no change in the number of vessels per field
vessel radii [5, 9]: smaller radii
proportion of leukocytes (CD45+/CD31- cells) ([7]; FACS of tumor cell suspensions): not altered
proportion of endothelial cells (CD31+/CD45-) ([7]; FACS, vs Scr siRNA): not different

Reference: US12059429B2, “Hornerin: a novel non-VEGF mediated angiogenic protein expressed in both human and mouse angiogenic endothelial cells and human pancreatic cancer cells” (University of Virginia Patent Foundation, priority 2018, dated 2024)
